Measured values reported in the CheMixHub viscosity set.
“And” between values parts separate entries of the source, which are not always exact repeats. Equal entries are not always repeated.

Assay: xn = mol fraction of the nth substance listed

CCCCN + NC1CCCCC1
298.15 K, 101 kPa
Details	viscosity [mPa·s]
x2 = 0.0757	0.6805
x2 = 0.1557	0.8796
x2 = 0.2401	1.111
x2 = 0.3296	1.33
x2 = 0.4244	1.548
x2 = 0.5252	1.774
x2 = 0.6324	1.954
x2 = 0.7468	2.035
x2 = 0.8691	1.976

O=[N+]([O-])[O-].[Ag+] + Nc1cccc(Cl)c1
298.15 K, 101 kPa
Details	viscosity [mPa·s]
x1 = 0.00059	3.52
x1 = 0.0014	3.57
x1 = 0.00381	3.67
x1 = 0.008857	3.92
x1 = 0.02337	4.83
x1 = 0.06044	9.18

CC(=O)[O-].CCn1cc[n+](CC)c1 + O
viscosity [mPa·s], 100 kPa
Details	x2 = 0.09432	x2 = 0.2079	x2 = 0.3498	x2 = 0.453	x2 = 0.5329
298.15 K	129.4	120.3	79.4	62.7	50.4
323.15 K	38.2	36.6	26.3	21.5	17.9

CC[N+](CC)(CC)Cc1ccccc1.[Cl-] + O
viscosity [mPa·s], 100 kPa
Details	298.15 K	303.15 K	308.15 K	313.15 K	318.15 K
x1 = 8e-05	0.8929	0.7989	0.7209	0.6322	0.5462
x1 = 0.0002	0.8948	0.8015	0.7259	0.6354	0.5509
x1 = 0.0004	0.8991	0.8041	0.7284	0.6358	0.552

CCn1ccnc1 + O
viscosity [mPa·s], 100 kPa
Details	298.15 K	308.15 K	318.15 K
x1 = 0.05	1.48	1.16	0.94
x1 = 0.1007	2.04	1.56	1.23
x1 = 0.1995	2.99	2.21	1.7
x1 = 0.2988	3.68	2.67	2.03
x1 = 0.3937	4.05	2.92	2.19
x1 = 0.4933	4.05	2.93	2.21
x1 = 0.6011	3.84	2.81	2.14
x1 = 0.695	3.18	2.41	1.89
x1 = 0.7956	2.65	2.07	1.67
x1 = 0.89	2.27	1.82	1.5
x1 = 0.9542	2.05	1.67	1.39

NCCC(=O)O + O
viscosity [mPa·s], 100 kPa
Details	x1 = 0.000358	x1 = 0.000542	x1 = 0.00072	x1 = 0.000808	x1 = 0.00108	x1 = 0.00126	x1 = 0.00144	x1 = 0.0018
293.15 K	1.006	1.008	1.009	1.011	1.014	1.016	1.018	1.022
298.15 K	0.894	0.894	0.896	0.898	0.901	0.902	0.905	0.908
303.15 K	0.8	0.8	0.802	0.804	0.805	0.807	0.809	0.812
308.15 K	0.721	0.721	0.723	0.725	0.725	0.728	0.729	0.732
313.15 K	0.653	0.653	0.655	0.657	0.657	0.659	0.66	0.663

O=C([O-])CC(=O)[O-].[Na+].[Na+] + O
viscosity, 101 kPa
Details	x1 = 9e-05	x1 = 0.00018	x1 = 0.00027	x1 = 0.00036
298.15 K	0.8932 mPa·s and 0.8932 mPa·s	0.8959 mPa·s and 0.8959 mPa·s	0.8987 mPa·s and 0.8987 mPa·s	0.9014 mPa·s and 0.9014 mPa·s
308.15 K	0.7222 mPa·s and 0.7222 mPa·s	0.7237 mPa·s and 0.7237 mPa·s	0.7253 mPa·s and 0.7253 mPa·s	0.7279 mPa·s and 0.7279 mPa·s
318.15 K	0.598 mPa·s and 0.598 mPa·s	0.6007 mPa·s and 0.6007 mPa·s	0.6021 mPa·s and 0.6021 mPa·s	0.6048 mPa·s and 0.6048 mPa·s

O=C([O-])CC(O)(CC(=O)[O-])C(=O)[O-].[K+].[K+].[K+] + O
viscosity [mPa·s], 101 kPa
Details	293.15 K	298.15 K	303.15 K	308.15 K
x1 = 0.0025	1.072	0.946	0.844	0.758
x1 = 0.0089	1.265	1.123	1.003	0.908
x1 = 0.0177	1.478	1.32	1.187	1.07

O=S(=O)([O-])[O-].[K+].[K+] + O
Details	viscosity
293.65 K, 100 kPa, x1 = 0.008033	1.089 mPa·s
294.15 K, 100 kPa, x1 = 0.005375	1.042 mPa·s
294.15 K, 100 kPa, x1 = 0.01069	1.109 mPa·s and 1.108 mPa·s
298.15 K, 100 kPa, x1 = 5e-05	0.8905 mPa·s
298.15 K, 100 kPa, x1 = 0.0001	0.891 mPa·s
298.15 K, 100 kPa, x1 = 0.00021	0.892 mPa·s
298.15 K, 100 kPa, x1 = 0.00031	0.893 mPa·s
298.15 K, 100 kPa, x1 = 0.00104	0.9247 mPa·s
298.15 K, 101 kPa, x1 = 0.00655	0.966 mPa·s
298.15 K, 101 kPa, x1 = 0.01242	1.039 mPa·s
303.15 K, 101 kPa, x1 = 0.01242	0.9548 mPa·s
308.15 K, 100 kPa, x1 = 5e-05	0.7195 mPa·s
308.15 K, 100 kPa, x1 = 0.0001	0.72 mPa·s
308.15 K, 100 kPa, x1 = 0.00021	0.721 mPa·s
308.15 K, 100 kPa, x1 = 0.00031	0.722 mPa·s
308.15 K, 100 kPa, x1 = 0.00104	0.7509 mPa·s
308.15 K, 101 kPa, x1 = 0.01242	0.8705 mPa·s
313.15 K, 101 kPa, x1 = 0.01242	0.7905 mPa·s
318.15 K, 101 kPa, x1 = 0.01242	0.7249 mPa·s
323.15 K, 101 kPa, x1 = 0.00318	0.576 mPa·s
323.15 K, 101 kPa, x1 = 0.00655	0.603 mPa·s
323.15 K, 101 kPa, x1 = 0.0113	0.645 mPa·s
